Assay results reported in patent US20180160679A1, “PROCESS FOR TREATING PERENNIAL PLANT WOOD DISEASES” (priority 2015, published 2018).

What was measured:
[1] = system: Neofusicoccum parvum (NpSV); assay: Mycelial growth on malt-agar medium with fungicide; format: cell-based; details: for activity on mycelial growth / concentration at which mycelial growth is inhibited completely: Example 6
Protocol: (§1) Formulation 3 was used in this experiment and was compared with two formulations 5 and 6, is devoid of one of the two active ingredients but of identical composition (the quantity of active ingredient omitted is replaced with water).
(§2) The fungi on which formulations 3, 5 and 6 were tested are Diplodia seriata (F98-01), Neofusicoccum parvum (NpSV), Eutypa lata (St309) and Formitiporia mediterranea (F2010-1).
(§3) The culture medium is a malt-agar medium (15 g of malt and 20 g of agar per litre of deionized water, sterilized at 120° C. for 20 minutes).
(§4) The medium containing the fungicides is prepared by diluting the formulation under investigation in deionized water, which is added to the culture medium. The mixture is then homogenized and distributed in Petri dishes with a diameter of 90 mm.
(§5) The final concentrations of each active ingredient in the medium are as follows: 0.0005, 0.005, 0.05, 0.5, 5, 50 and 500 mg/L.
(§6) Discs with a diameter of 6 mm, cut out with a punch, are placed in each dish in sterile conditions. Three repetitions are carried out for each test. The Petri dishes are incubated at 25° C. for a time necessary for the fungus to develop as far as 1 or 2 cm from the edges of a Petri dish.
(§7) The percentage mycelial growth is evaluated relative to a control placed under the same conditions for each concentration of fungicide, by the following equation: […]
(§8) The value of the concentration of the active ingredients required for inhibiting mycelial growth at 50% (IC50) or at 90% (IC90) is calculated from the regression straight line of the percentage efficacy as a function of the logarithm of the concentration of the fungicide.
(§9) The value of the concentration of the fungicide that is lethal for the fungus is obtained according to the following methodology; the mycelial implants that have not developed on the culture medium with fungicide are transferred to a malt-agar culture medium, without fungicide. The Petri dishes are then incubated at ambient temperature. Failure of the mycelial implant to take is noted.
(§10) The interactions between the fungicides in composition 3 are investigated by Wadley's method. IC50 and IC90 can be determined for each fungicide and for the fungicide combination from the curves plotted for each active ingredient used alone or for the combination.
(§11) IC90 and the theoretical IC90 for the combination is then calculated using the following equation:
(§12) The type and the level of the interaction F are then calculated by dividing the theoretical IC value by the experimental IC observed for the combination of fungicides (F=theoretical IC/experimental IC).
(§13) The interactions are defined thus: • Additivity: F=1, • Synergy: F>1, • Antagonism: F<1.
(§14) The efficacy of tetraconazole, cyproconazole alone or in combination with chlorothalonil or metiram zinc on mycelial growth was evaluated under the same conditions as in Example 4.
(§15) The efficacy of tebuconazole in combination with another […] antifungal, metiram zinc, was also evaluated.

[2] = system: Diplodia seriata (F98-01); assay: Mycelial growth on malt-agar medium with fungicide; format: cell-based; details: for activity on mycelial growth / concentration at which mycelial growth is inhibited completely: Example 6
Protocol: as §1, §2, §3, §4, §5, §6, §7, §8, §9, §10, §11, §12, §13, §14, §15

Eutypa lata (St309) = assay: Mycelial growth on malt-agar medium with fungicide; format: cell-based
Protocol: as §1, §2, §3, §4, §5, §6, §7, §8, §9, §10, §11, §12, §13, §14, §15

Eutypa lata = assay: Germination of the spores on malt-agar medium with fungicide; format: cell-based
Protocol: (§16) Formulation 3 was used in this experiment and was compared with two formulations 5 and 6, devoid of one of the two active ingredients but of identical composition (the quantity of active ingredient omitted is replaced with water).
(§17) The fungi on which formulations 3, 5 and 6 were tested are Phaemoniella chlamydospora (81pep), Phaeoacremonium aleophilum (LR 23), Diplodia seriata (F98-01), Neofusicoccum parvum (NpSV) and Eutypa lata.
(§18) The fungi are transferred to a malt-agar medium (15 g of malt and 20 g of agar per litre of deionized water, sterilized at 120° C. for 20 minutes) in a Petri dish for multiplication.
The ascospores of Eutypa lata are obtained from perithecia situated on vine plants that have died from Eutypiosis. The perithecia are decapitated superficially, isolated one by one and soaked in sterile water for approximately 2 hours. The concentration of ascospores is then adjusted to 100-200 conidia per μl.
(§19) The culture medium is a malt-agar medium (15 g of malt and 20 g of agar per litre of deionized water, sterilized at 120° C. for 20 minutes). […]
(§20) The percentage germination of the spores is evaluated relative to a control placed under the same conditions. […]
(§21) For each Petri dish, 200 spores are counted and the percentage of spores germinated is calculated.
(§22) For each concentration of fungicide, the percentage efficacy of the active ingredient is determined by the following equation: […]

[3] = system: Phaemoniella chlamydospora (81pep); assay: as above; format: cell-based; details: at 0.05 mg/1
Protocol: as §16, §17, §18
(§23) The conidia of Phaemoniella chlamydospora and Phaeoacremonium aleophilum are obtained from cultures of these fungi. The conidia are obtained by rinsing the colony of fungi with a few millilitres of sterile deionized water.
(§24) The suspension of conidia in deionized water is then adjusted to 100-200 conidia per μl.
as §3, §4, §5
(§25) 100 μl of a previously homogenized suspension of spores is deposited and spread over the surface of the culture medium.
(§26) Two repetitions are carried out for each test.
(§27) The percentage germination of the spores is evaluated relative to a control placed under the same conditions.
(§28) Two Petri dishes are incubated at 25° C. for a time required for the spores of the control dish to have germinated between 90 and 100%.
as §21, §22

[4] = system: Phaeoacremonium aleophilum (LR 23); assay: as above; format: cell-based; details: for inhibition of germination of the spores: at the concentrations tested (0.0005 to 500 mg/L)
Protocol: as §16, §17, §18, §23, §24, §3, §4, §5, §25, §26, §27, §28, §21, §22

[5] = system: Neonectria galligena (Cylindrocarpon heteronema); assay: Growth inhibition by laser nephelometry in 96-well microplates; format: cell-based; details: for IC50 / IC90: growth, nephelometry for 60 h
Protocol: (§29) For multicellular organisms such as fungi, the nephelometry method is used on sporulating strains (Joubert et al., Laser nephelometry applied in an automated microplate system to study filamentous fungus growth, Biotechniques 48: 399-404, 2010).
(§30) The strains are multiplied on suitable agar media in an oven at 20° C., for 8 days before their use, so as to be in their exponential growth phase. The fungal suspension is prepared extemporaneously at a concentration of […] for Pc and […] for Ch.
(§31) 100 μl of the suspension is used for the tests.
(§32) The tests are carried out in 96-well microplates. Doses of 0 ppm, 0.1 ppm, 0.3 ppm, 1 ppm, 3 ppm, 10 ppm, 30 ppm, 100 ppm, 300 ppm, 1000 ppm and 3000 ppm (final concentration of the substance) will be tested per product.
(§33) Three technical repetitions are carried out per modality (target species/formulation).
(§34) Controls are added per target pathogenic agent: one positive growth control and the products alone at the highest doses.
(§35) Nephelometry measurements (RNU) are carried out for 60 h, every 30 minutes and the growth values are measured to study the growth inhibition effect relative to the fungal controls.

Phytophthora cactorum = assay: as above; format: cell-based; details: nephelometry for 60 h
Protocol: as §29, §30, §31, §32, §33, §34, §35

[6] = system: Neofusicoccum parvum (NpSV); assay: Germination of the spores on malt-agar medium with fungicide; format: cell-based
Protocol: as §16, §17, §18
The conidia of Neofusicoccum parvum are obtained from pycnidia that have developed on fragments of grapevines shoots.
as §3
The medium containing the fungicides is prepared by diluting the formulation under investigation in deionized water, which is added to the culture medium. […]
as §20, §21, §22

[7] = system: Diplodia seriata (F98-01); assay: as above; format: cell-based; details: at the concentrations tested (0.0005 to 500 mg/L)
Protocol: as §16, §17, §18
The conidia of Diplodia seriata are obtained from pycnidia that have developed in less than three weeks of culture on the malt-agar medium. The pycnidia are taken from and cultured in sterile water in such a way that they release the conidia.
as §19, §20, §21, §22

[8] = system: Formitiporia mediterranea (F2010-1); assay: Mycelial growth on malt-agar medium with fungicide; format: cell-based, Fomitoporia mediterranea; details: for fungicide (lethal) activity: at the concentrations tested; for concentration at which mycelial growth is inhibited completely: Example 6
Protocol: as §1, §2, §3, §4, §5, §6, §7, §8, §9, §10, §11, §12, §13, §14, §15

[9] = system: Phaeocremonium aleophilum; assay: Mycelial growth on malt-agar medium with fungicide (Example 6); format: cell-based
Protocol: as §3, §4, §6, §7, §8
as §9, with “noted. […]” for “noted.”
as §14, §15

[10] = system: Phaeomoniella chlamydospora; assay: as above; format: cell-based
Protocol: as §3, §4, §6, §7, §8
as §9, with “noted. […]” for “noted.”
as §14, §15

[11] = Example 5, at the concentrations tested

Row | Compound | activity on mycelial growth [1] | activity on mycelial growth [2] | activity on mycelial growth (Eutypa lata (St309); Example 6) | concentration that inhibits germination of the spores (Eutypa lata) | inhibition of germination of the spores [3] | inhibition of germination of the spores [4] | lethal dose [5] | IC50 [5] | IC90 [5] | 50% inhibitory concentration (IC50) (Phytophthora cactorum) | 90% inhibitory concentration (IC90) (Phytophthora cactorum) | fungicide (lethal) activity [8] | concentration at which mycelial growth is inhibited completely [9] | concentration at which mycelial growth is inhibited completely [10] | concentration at which mycelial growth is inhibited completely [2] | concentration at which mycelial growth is inhibited completely [8] | concentration at which mycelial growth is inhibited completely [1] | concentration from which mycelial growth is inhibited completely (Eutypa lata (St309); Example 6) | concentration at which the substance is fungicidal (lethal dose) [9] | concentration at which the substance is fungicidal [10] | also measured
1 | N#Cc1c(Cl)c(Cl)c(Cl)c(C#N)c1Cl [chlorothalonil] | moderate activity | low activity | do not inhibit the mycelial growth of Eutypa lata completely | 5 mg/1 | does not inhibit germination of the spores | does not inhibit germination of the spores | ≥ 300 ppm | approximately 100 ppm | around 250 ppm | below 10 ppm | 1000 ppm | does not display fungicide activity | 500 mg/L | 500 mg/L | – | – | – | – | – | – | concentration at which mycelial development is strongly inhibited ([1]; Example 5): 500 mg/L; fungicide (lethal) activity [1, 11]: does not display fungicide activity; concentration from which mycelial development is strongly inhibited ([2]; Example 5): ≥ 500 mg/L; fungicide (lethal) activity [2, 11]: does not display fungicide activity; concentration from which mycelial development is strongly inhibited (Eutypa lata (St309); Example 5): ≥ 50 mg/L; fungicide (lethal) activity (Eutypa lata (St309); Example 5, at the concentrations tested (0.0005 to 500 mg/L)): does not display fungicide activity; activity on mycelial growth (Eutypa lata (St309); Example 6, listed as Chlorothalonil): low activity; concentration from which germination of the spores is inhibited [6]: ≥ 5 mg/L; inhibition of germination of the spores [7]: does not inhibit germination of the spores; concentration from which mycelial development is strongly inhibited ([8]; Example 5): ≥ 5 mg/L
2 | metiram zinc | moderate activity | – | low activity | – | – | – | – | – | – | – | – | fungicidal | 100 mg/L | 100 mg/L | 500 mg/L | 500 mg/L | – | – | – | – | activity on mycelial growth (Eutypa lata (St309); Example 6, listed as Metiram zinc): do not inhibit the mycelial growth of Eutypa lata completely
3 | CC(C1CC1)C(O)(Cn1cncn1)c1ccc(Cl)cc1 (centres unmarked) [cyproconazole] | – | low activity | – | – | – | – | – | – | – | – | – | fungicidal | 50 mg/L | 50 mg/L | – | 500 mg/L | 500 mg/L | ≥ 1 mg/L | 100 mg/L | 100 mg/L | lethal dose (Eutypa lata (St309); Example 6): 10 mg/L
4 | CC(C)(C)C(O)(CCc1ccc(Cl)cc1)Cn1cncn1 (centres unmarked) [tebuconazole] | – | – | – | 50 mg/1 | inhibit germination of the spores completely | does not prevent germination of the spores | 1000 ppm | around 230 ppm | around 800 ppm | around 200 ppm | < 1000 ppm | None of the concentrations tested is lethal | 50 mg/L | 50 mg/L | – | – | – | – | 100 mg/L | 100 mg/L | concentration from which mycelial growth is inhibited completely ([1]; Example 5): ≥ 0.5 mg/L; lethal concentration ([1]; Example 5): 500 mg/L; IC50 ([1]; Neofusicoccum parvum, Example 5, mycelial growth, unit not given (concentrations tested in mg/L)): 13 ng/mL; IC50 ([2]; Diplodia seriata, Example 5, mycelial growth, unit not given (concentrations tested in mg/L)): 6 ng/mL; concentration from which mycelial growth is inhibited completely ([2]; Example 5): ≥ 50 mg/L; lethal concentration ([2]; Example 5): 500 mg/L; concentration from which mycelial growth is inhibited completely (Eutypa lata (St309); Example 5): ≥ 0.5 mg/L; lethal concentration (Eutypa lata (St309); Example 5, implants transferred to medium without fungicide): 500 mg/L; concentration from which elongation of the spores is inhibited [4]: ≥ 5 mg/L; inhibition of germination of the spores ([6]; at the concentration tested): does not inhibit germination of the spores; concentration from which mycelial growth is inhibited completely ([8]; Example 5): ≥ 0.5 mg/L; IC50 ([8]; Example 5, mycelial growth, unit not given (concentrations tested in mg/L)): 3 ng/mL
5 | FC(F)C(F)(F)OCC(Cn1cncn1)c1ccc(Cl)cc1Cl (centres unmarked) [tetraconazole] | – | – | – | – | – | – | – | – | – | – | – | fungicidal | 50 mg/L | 50 mg/L | 500 mg/L | 10 mg/L | 500 mg/L | ≥ 5 mg/L | 100 mg/L | 100 mg/L | lethal dose (Eutypa lata (St309); Example 6): 50 mg/L
